From the supplement of paper PMC10307832

The cell lines below were run with Cc1nc(C(=O)NCC(=O)O)c(O)c2ccc(Oc3ccccc3)cc12 [FG-4592] + CC(C)C[C@H](NC(=O)[C@H](Cc1ccccc1)NC(=O)c1cnccn1)B(O)O [Bortezomib] (partner 0.002 µM) (assay: relative viability (nuclei count vs DMSO), 5 days (fraction); higher = more cells survive). Settings: first compound 0.08 µM.
Outline: (§1)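 Values are medians from duplicate plates. Each reflects relative viability, defined as the nuclei count of treated wells over that of vehicle wells. Lung cancer cell lines in 1536-well plates were pin-tool dosed one day after seeding with one drug alone or with a fixed anchor-drug dose plus five library-drug doses (not always all listed) in √10 steps, then fixed, stained and imaged at 4× after 5 days.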
Work on LU99A yielded a relative viability of 1.08.
BEN was tested, and the relative viability was 0.608.
HARA showed a relative viability of 1.03.
For HCC-78, the relative viability was 0.558.
With NCI-H322M the relative viability was 1.37.
LCLC-97TM1 gave a relative viability of 0.77.
With NCI-H2009 the relative viability was 1.02.
A-427 showed a relative viability of 0.925.
In the case of NCI-H441, the relative viability is reported as 0.272.
Cell Line NCI-H661 has a relative viability of 0.637.
NCI-H1734 showed a relative viability of 0.743.
In the case of NCI-H460, the relative viability is reported as 1.13.
Cell Line 201T has a relative viability of 1.11.
NCI-H1915 was tested, and the relative viability was 0.933.
Cell Line HCC-827 has a relative viability of 1.04.
For LXF-289, the relative viability was 1.02.
NCI-H23 showed a relative viability of 0.922.
NCI-H647 was tested, and the relative viability was 0.977.
Work on CAL-12T yielded a relative viability of 1.05.
In the case of NCI-H1651, the relative viability is reported as 0.834.
EPLC-272H gave a relative viability of 0.897.
For NCI-H2228, the relative viability was 0.928.
With NCI-H1355 the relative viability was 1.2.
NCI-H3122 was tested, and the relative viability was 1.03.
Work on NCI-H1437 yielded a relative viability of 0.537.
Cell Line NCI-H1755 has a relative viability of 0.918.
In the case of NCI-H2023, the relative viability is reported as 1.07.
HCC-15 showed a relative viability of 1.01.
PC-14 showed a relative viability of 0.859.
With EKVX the relative viability was 1.1.

Same assay, conditions: first compound 0.253 µM
Cell Line HOP-62 has a relative viability of 0.816.
Cell Line LU99A has a relative viability of 1.03.
BEN gave a relative viability of 0.733.
For HARA, the relative viability was 1.01.
For HCC-78, the relative viability was 0.51.
For NCI-H322M, the relative viability was 1.18.
LCLC-97TM1 showed a relative viability of 0.522.
NCI-H2009 gave a relative viability of 0.934.
Work on A-427 yielded a relative viability of 0.979.
With NCI-H441 the relative viability was 0.647.
NCI-H661 showed a relative viability of 0.858.
NCI-H1734 was tested, and the relative viability was 0.956.
NCI-H460 showed a relative viability of 1.04.
For NCI-H2347, the relative viability was 0.623.
SK-LU-1 showed a relative viability of 0.849.
201T gave a relative viability of 1.12.
For NCI-H1915, the relative viability was 0.922.
HCC-827 gave a relative viability of 0.947.
For LXF-289, the relative viability was 0.886.
NCI-H23 gave a relative viability of 0.977.
Work on NCI-H647 yielded a relative viability of 0.846.
In the case of CAL-12T, the relative viability is reported as 1.07.
NCI-H1651 gave a relative viability of 0.826.
In the case of EPLC-272H, the relative viability is reported as 0.712.
Cell Line NCI-H2228 has a relative viability of 0.872.
Cell Line NCI-H1355 has a relative viability of 1.15.
With NCI-H3122 the relative viability was 1.02.
With NCI-H1437 the relative viability was 0.581.
NCI-H1755 was tested, and the relative viability was 1.01.
NCI-H2023 showed a relative viability of 0.924.
HCC-15 gave a relative viability of 0.913.
PC-14 showed a relative viability of 0.946.
Cell Line EKVX has a relative viability of 0.94.

Same assay, conditions: first compound 0.8 µM
For HOP-62, the relative viability was 0.628.
For LU99A, the relative viability was 0.798.
In the case of BEN, the relative viability is reported as 0.701.
Work on HCC-78 yielded a relative viability of 0.406.
NCI-H322M was tested, and the relative viability was 1.17.
With LCLC-97TM1 the relative viability was 0.884.
Cell Line NCI-H2009 has a relative viability of 0.948.
A-427 showed a relative viability of 0.983.
NCI-H441 was tested, and the relative viability was 0.356.
In the case of NCI-H661, the relative viability is reported as 0.723.
NCI-H1734 was tested, and the relative viability was 0.861.
For NCI-H460, the relative viability was 1.22.
Work on NCI-H2347 yielded a relative viability of 0.806.
Cell Line SK-LU-1 has a relative viability of 0.825.
Cell Line 201T has a relative viability of 1.04.
With NCI-H1915 the relative viability was 0.95.
Cell Line HCC-827 has a relative viability of 1.23.
For LXF-289, the relative viability was 1.05.
Work on NCI-H23 yielded a relative viability of 0.962.
NCI-H647 showed a relative viability of 0.844.
Work on CAL-12T yielded a relative viability of 0.601.
NCI-H1651 was tested, and the relative viability was 1.02.
EPLC-272H was tested, and the relative viability was 0.7.
NCI-H2228 showed a relative viability of 0.786.
Work on NCI-H3122 yielded a relative viability of 1.13.
With NCI-H1437 the relative viability was 0.63.
Cell Line NCI-H1755 has a relative viability of 0.907.
Work on NCI-H2023 yielded a relative viability of 0.664.
In the case of HCC-15, the relative viability is reported as 1.07.
With PC-14 the relative viability was 0.947.
Cell Line EKVX has a relative viability of 1.06.

Same assay, conditions: first compound 2.53 µM
With HOP-62 the relative viability was 0.754.
LU99A gave a relative viability of 1.04.
In the case of BEN, the relative viability is reported as 0.825.
HARA showed a relative viability of 1.08.
For HCC-78, the relative viability was 0.453.
Work on NCI-H322M yielded a relative viability of 1.25.
For LCLC-97TM1, the relative viability was 0.71.
Cell Line NCI-H2009 has a relative viability of 0.826.
Cell Line A-427 has a relative viability of 0.946.
NCI-H441 gave a relative viability of 0.44.
In the case of NCI-H661, the relative viability is reported as 0.682.
For NCI-H1734, the relative viability was 0.838.
NCI-H460 showed a relative viability of 1.05.
Work on NCI-H2347 yielded a relative viability of 0.782.
SK-LU-1 showed a relative viability of 1.31.
201T gave a relative viability of 1.1.
For NCI-H1915, the relative viability was 0.884.
For HCC-827, the relative viability was 0.983.
Work on LXF-289 yielded a relative viability of 0.97.
For NCI-H23, the relative viability was 0.834.
Cell Line NCI-H647 has a relative viability of 0.912.
With CAL-12T the relative viability was 1.15.
Cell Line NCI-H1651 has a relative viability of 0.893.
In the case of EPLC-272H, the relative viability is reported as 0.979.
NCI-H2228 was tested, and the relative viability was 1.1.
Work on NCI-H1355 yielded a relative viability of 1.1.
With NCI-H3122 the relative viability was 1.07.
In the case of NCI-H1437, the relative viability is reported as 0.458.
NCI-H1755 showed a relative viability of 1.02.
For NCI-H2023, the relative viability was 0.763.
HCC-15 gave a relative viability of 1.07.
In the case of PC-14, the relative viability is reported as 0.949.
EKVX gave a relative viability of 1.17.

Same assay, conditions: first compound 8 µM
Work on HOP-62 yielded a relative viability of 0.985.
LU99A gave a relative viability of 1.01.
BEN was tested, and the relative viability was 0.546.
HARA showed a relative viability of 1.11.
In the case of HCC-78, the relative viability is reported as 0.371.
NCI-H322M was tested, and the relative viability was 1.3.
With LCLC-97TM1 the relative viability was 0.301.
In the case of NCI-H2009, the relative viability is reported as 0.882.
With A-427 the relative viability was 0.954.
NCI-H441 gave a relative viability of 0.367.
NCI-H661 gave a relative viability of 0.638.
NCI-H1734 showed a relative viability of 0.951.
NCI-H460 showed a relative viability of 1.34.
NCI-H2347 was tested, and the relative viability was 1.14.
SK-LU-1 showed a relative viability of 0.978.
In the case of 201T, the relative viability is reported as 1.08.
Work on NCI-H1915 yielded a relative viability of 1.01.
HCC-827 gave a relative viability of 0.939.
With LXF-289 the relative viability was 0.973.
NCI-H23 showed a relative viability of 0.826.
NCI-H647 showed a relative viability of 0.958.
CAL-12T gave a relative viability of 0.902.
NCI-H1651 showed a relative viability of 0.856.
In the case of EPLC-272H, the relative viability is reported as 0.799.
Cell Line NCI-H2228 has a relative viability of 0.737.
With NCI-H1355 the relative viability was 1.25.
In the case of NCI-H3122, the relative viability is reported as 1.07.
Cell Line NCI-H1437 has a relative viability of 0.378.
NCI-H1755 gave a relative viability of 0.998.
In the case of NCI-H2023, the relative viability is reported as 0.679.
Work on HCC-15 yielded a relative viability of 0.999.
PC-14 showed a relative viability of 1.01.
Cell Line EKVX has a relative viability of 0.885.

Each cell line was assayed with Cc1nc(C(=O)NCC(=O)O)c(O)c2ccc(Oc3ccccc3)cc12 [FG-4592] + Cc1nc(Nc2ncc(C(=O)Nc3c(C)cccc3Cl)s2)cc(N2CCN(CCO)CC2)n1 [Dasatinib] (partner 0.075 µM) in the same assay as above. Settings: first compound 0.08 µM.
Outline: as §1
Cell Line HOP-62 has a relative viability of 0.637.
